Legend:
SSTR4 [1] = target: T1, SSTR4 (Homo sapiens (Human), UniProt P31391); assay: Inhibition of forskolin stimulated cAMP in CHO-K1 cells overexpressing SSTR4; format: cell-based; conditions: for EC50: read-out: SSTR4 Activity pEC50 (converted)
Outline: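 Read-out is a HTRF LANCE Ultra cAMP competition using Eu-labelled streptavidin and biotin-cAMP, incubated 60 min at room temperature. It followed a 30 min room-temperature exposure of Kreb's Ringer-washed cells to compound plus forskolin. Potency is expressed as pEC50.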

SSTR4 [2] = target: T1, SSTR4; assay: SSTR4 I-125 somatostatin competition binding assay (membranes from CHO-K1 cells overexpressing SSTR4); conditions: competition with I-125 labeled somatostatin; for IC50: read-out: SSTR4 Binding pIC50 (converted)
Experimental: Membranes from CHO-K1 cells overexpressing SSTR4 are purchased from Perkin Elmer (catalog number ES-524-M400UA). Test compounds are suspended in DMSO and then diluted in assay buffer (25 mM HEPES pH 7.4, 10 mM MgCl2, 1 mM CaCl2), 0.5% BSA) plus 0.2 nM I-125 labeled somatostatin (Perkin Elmer catalog number NEX389). […] Then 1 μg of SSTR4 membranes in 50 μL assay buffer are added per well. The Plate is incubated for 60 minutes at room temperature. FilterMat A filters (Perkin Elmer catalog number 1450-421) are pre-soaked in 0.5% PEI (Sigma catalog number P3143). The contents of the assay plate are transferred to filters with a TomTech harvester and washed 5 times with 20 mM HEPES, 100 mM NaCl. The filters are dried in a microwave oven then transferred to sample bag containing a scintillator sheet (Perkin Elmer catalog number 1450-441). The scintillator sheets are melted to filters using a heat block. The filters are then read in a MicroBeta scintillation counter. Binding Ki curves are generated using Activity Base for Screening Data Management and the results are reported as pIC50.

SSTR1 = SSTR1 (Homo sapiens (Human), UniProt P30872); assay: SSTR1 I-125 somatostatin competition binding assay for selectivity versus SSTR4 (membranes from CHO-K1 cells overexpressing SSTR1); conditions: for SSTR1 Binding pIC50: competition with I-125 labeled somatostatin, CHO-K1 SSTR1 membranes;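 for all read-outs here: Filter-based radioligand binding, bound label counted by scintillation after 60 min incubation at room temperature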
SSTR1, sequence (P30872 whole entry): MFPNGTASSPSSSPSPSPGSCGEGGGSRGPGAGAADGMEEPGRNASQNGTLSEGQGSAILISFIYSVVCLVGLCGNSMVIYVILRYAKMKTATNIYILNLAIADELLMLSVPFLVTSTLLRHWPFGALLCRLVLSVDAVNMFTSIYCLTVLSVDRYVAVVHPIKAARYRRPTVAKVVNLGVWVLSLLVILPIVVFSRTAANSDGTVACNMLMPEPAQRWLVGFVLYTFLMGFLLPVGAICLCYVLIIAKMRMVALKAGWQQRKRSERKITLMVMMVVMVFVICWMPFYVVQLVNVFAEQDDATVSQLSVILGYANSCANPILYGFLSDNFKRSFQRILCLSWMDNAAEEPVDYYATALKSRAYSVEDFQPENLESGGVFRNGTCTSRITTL
Experimental: Membranes from CHO-K1 cells overexpressing SSTR1 are purchased from Perkin Elmer (catalog number ES-520-M400UA). […] Then 10 μg of SSTR1 membranes in 50 μL assay buffer are added per well. The plate is incubated for 60 minutes at room temperature. […] The contents of the assay plate are transferred to filters with a TomTech harvester and washed 5 times with 20 mM HEPES, 100 mM NaCl. […] The scintillator sheets are melted to the filters using a heat block. The filters are then read in a MicroBeta scintillation counter. Binding Ki curves are generated using Activity Base for Screening Data Management and the results are reported as pIC50.

T1 sequence (P31391 whole entry): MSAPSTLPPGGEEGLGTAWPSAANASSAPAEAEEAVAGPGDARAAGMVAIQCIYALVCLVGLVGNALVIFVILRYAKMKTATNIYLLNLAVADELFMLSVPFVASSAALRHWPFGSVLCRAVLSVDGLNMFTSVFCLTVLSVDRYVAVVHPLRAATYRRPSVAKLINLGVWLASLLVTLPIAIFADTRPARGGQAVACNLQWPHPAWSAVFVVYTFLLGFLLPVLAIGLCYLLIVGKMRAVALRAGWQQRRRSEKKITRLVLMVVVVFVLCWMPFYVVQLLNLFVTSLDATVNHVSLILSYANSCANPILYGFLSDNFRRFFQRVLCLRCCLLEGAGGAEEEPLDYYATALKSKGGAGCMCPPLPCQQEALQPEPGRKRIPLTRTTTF

SMILES	SSTR4 Activity pEC50 (SSTR4 [1])	SSTR4 Binding pIC50 (SSTR4 [2])	SSTR1 Binding pIC50 (SSTR1)	EC50 (SSTR4 [1]) [nM]	IC50 (SSTR4 [2]) [nM]	IC50 (SSTR1) [nM]
CN1CCC(NC(=O)C(C)(C)COc2ncccc2C(F)(F)F)C2(CC2)C1 (stereo not drawn) [Example 114, 2,2-dimethyl-N-(5-methyl-5-azaspiro[2.5]octan-8-yl)-3-((3-(trifluoromethyl)pyridin-2-yl)oxy)propanamide]	8.0	6.9	4.6			
Cc1cccnc1OCC(C)(C)C(=O)N[C@@H]1CN(C)C[C@H]1c1cnn(C)c1 (relative stereo) [Example 18, trans-2,2-dimethyl-N-(1-methyl-4-(1-methyl-1H-pyrazol-4-yl)pyrrolidin-3-yl)-3-((3-methylpyridin-2-yl)oxy)propanamide]	7.1	6.0	5.1			
CN1CC(NC(=O)C(C)(C)COc2ncccc2C(F)(F)F)C2(CC2)C1 (stereo not drawn) [Example 138, 2,2-dimethyl-N-(5-methyl-5-azaspiro[2.4]heptan-7-yl)-3-((3-(trifluoromethyl)pyridin-2-yl)oxy)propanamide]	8.0	7.2	5.7			
C[C@@H]1C[C@H](NC(=O)C(F)(F)COc2ncccc2C2CC2)CCN1C [Example 194, 3-((3-cyclopropylpyridin-2-yl)oxy)-N-((2R,4R)-1,2-dimethylpiperidin-4-yl)-2,2-difluoropropanamide]	8.4	7.7	4.4			
C[C@@H]1C[C@H](NC(=O)C(F)(F)COc2ncccc2OC(F)(F)F)CCN1 [Example 212, 2,2-difluoro-N-((2R,4R)-2-methylpiperidin-4-yl)-3-((3-(trifluoromethoxy)pyridin-2-yl)oxy)propanamide]	8.6	7.4	4.5			
CN1CC[C@H](NC(=O)C(C)(C)COc2ncccc2C(F)(F)F)[C@H](c2ccccc2)C1 (relative stereo) [Example 163, 2,2-dimethyl-N-(cis-1-methyl-3-phenylpiperidin-4-yl)-3-((3-(trifluoromethyl)pyridin-2-yl)oxy)propanamide]	7.3	6.1	5.2			
C[C@H]1CNCC[C@@H]1NC(=O)C(F)(F)COc1ncccc1C1CC1 [Example 209, 3-((3-cyclopropylpyridin-2-yl)oxy)-2,2-difluoro-N-((3S,4S)-3-methylpiperidin-4-yl)propanamide]	9.2	7.6	4.9			
CN1CC[C@@H](NC(=O)C(C)(C)COc2ccccc2Cl)C1 [Example 68, (R)-3-(2-chlorophenoxy)-2,2-dimethyl-N-(1-methylpyrrolidin-3-yl)propanamide]	7.5	6.8	4.6			
Cc1c([C@@H]2CN(C)C[C@H]2NC(=O)C(C)(C)COc2ncccc2C(F)(F)F)cnn1C (relative stereo) [Example 28, trans-N-(4-(1,5-dimethyl-1H-pyrazol-4-yl)-1-methylpyrrolidin-3-yl)-2,2-dimethyl-3-((3-(trifluoromethyl)pyridin-2-yl)oxy)propanamide]	8.8	7.7	6.8			
CN1C[C@H](NC(=O)C(C)(C)COc2ncccc2C(F)(F)F)C2(CC2)C1 [Example 148, (R)-2,2-dimethyl-N-(5-methyl-5-azaspiro[2.4]heptan-7-yl)-3-((3-(trifluoromethyl)pyridin-2-yl)oxy)propanamide]	8.1	7.4	5.8			
CN(C(=O)C(C)(C)COc1ncccc1C(F)(F)F)[C@@H]1CCNC[C@H]1c1ccccc1 (racemic) [Example 162, trans-N,2,2-trimethyl-N-(3-phenylpiperidin-4-yl)-3-((3-(trifluoromethyl)pyridin-2-yl)oxy)propanamide]				126	1580	50100
CN1CCC(NC(=O)C(C)(C)COc2ccccc2Cl)CC1 [Example 66, 3-(2-chlorophenoxy)-2,2-dimethyl-N-(1-methylpiperidin-4-yl)propanamide]	7.7	7.0	4.9			
C[C@H]1CN(C)CC[C@@H]1NC(=O)C(C)(C)COc1ccccc1F [Example 202, N-((3S,4S)-1,3-dimethylpiperidin-4-yl)-3-(2-fluorophenoxy)-2,2-dimethylpropanamide]	7.1	7.0	5.0			
CN1CCC(NC(=O)C(C)(C)COc2ccccc2C(F)(F)F)CC1 [Example 64, 2,2-dimethyl-N-(1-methylpiperidin-4-yl)-3-(2-(trifluoromethyl)phenoxy)propanamide]	7.9	7.0	5.1			
CN1CC[C@@H](NC(=O)C(C)(C)COc2ncccc2C(F)(F)F)[C@H](c2cnn(C(F)F)c2)C1 (racemic) [Example 125, trans-N-(3-(1-(difluoromethyl)-1H-pyrazol-4-yl)-1-methylpiperidin-4-yl)-2,2-dimethyl-3-((3-(trifluoromethyl)pyridin-2-yl)oxy)propanamide]				1.58	50.1	794
CN1C[C@@H](NC(=O)C(C)(C)COc2ncccc2C2CC2)[C@H](c2cnn(C)c2)C1 (relative stereo) [Example 22, trans-3-((3-cyclopropylpyridin-2-yl)oxy)-2,2-dimethyl-N-(1-methyl-4-(1-methyl-1H-pyrazol-4-yl)pyrrolidin-3-yl)propanamide]	7.9	7.0	6.0			
CN1C[C@@H](NC(=O)C(C)(C)COc2ncccc2C2CC2)[C@H](c2ccc(C(F)(F)F)nc2)C1 (racemic) [Example 58, trans-3-((3-cyclopropylpyridin-2-yl)oxy)-2,2-dimethyl-N-(1-methyl-4-(6-(trifluoromethyl)pyridin-3-yl)pyrrolidin-3-yl)propanamide]				20	200	126
C[C@@H]1CN(C)CC[C@H]1NC(=O)C(C)(C)COc1ccccc1Cl (relative stereo) [Example 186, trans-3-(2-chlorophenoxy)-N-(1,3-dimethylpiperidin-4-yl)-2,2-dimethylpropanamide]	8.1	7.4	5.5			
CCc1ccccc1OCC(C)(C)C(=O)NC1CCN(CC(=O)c2ccc(Cl)cc2)CC1 [Example 104, N-(1-(2-(4-chlorophenyl)-2-oxoethyl)piperidin-4-yl)-3-(2-ethylphenoxy)-2,2-dimethylpropanamide]	9.2	8.0	4.8			
Cc1cccnc1OCC(C)(C)C(=O)N[C@@H]1CN(C)C[C@H]1c1cnn(C)c1C (relative stereo) [Example 26, trans-N-(4-(1,5-dimethyl-1H-pyrazol-4-yl)-1-methylpyrrolidin-3-yl)-2,2-dimethyl-3-((3-methylpyridin-2-yl)oxy)propanamide]	8.6	7.3	6.1			
C[C@@H]1C[C@H](NC(=O)C(C)(C)COc2ncccc2OC(F)(F)F)CCN1C [Example 179, N-((2R,4R)-1,2-dimethylpiperidin-4-yl)-2,2-dimethyl-3-((3-(trifluoromethoxy)pyridin-2-yl)oxy)propanamide]	8.1	7.4	4.8			
C[C@H]1C[C@@H](NC(=O)C(C)(C)COc2ncccc2OC(F)(F)F)CCN1C [Example 152, N-((2S,4S)-1,2-dimethylpiperidin-4-yl)-2,2-dimethyl-3-((3-(trifluoromethoxy)pyridin-2-yl)oxy)propanamide]	7.0	6.6	4.6			
C[C@H]1C[C@@H](NC(=O)C(C)(C)COc2ncccc2OC(F)(F)F)CCN1C (relative stereo) [Example 136, cis-N-(1,2-dimethylpiperidin-4-yl)-2,2-dimethyl-3-((3-(trifluoromethoxy)pyridin-2-yl)oxy)propanamide]	8.1	7.1	4.8			
CN1C[C@@H](NC(=O)C(C)(C)COc2ncccc2C(F)(F)F)[C@H](c2cnn(C)c2)C1 (relative stereo) [Example 19, trans-2,2-dimethyl-N-(1-methyl-4-(1-methyl-1H-pyrazol-4-yl)pyrrolidin-3-yl)-3-((3-(trifluoromethyl)pyridin-2-yl)oxy)propanamide]	7.7	6.8	6.1			
Cc1ncccc1[C@@H]1CNCC[C@H]1N(C)C(=O)C(C)(C)COc1ncccc1C(F)(F)F (racemic) [Example 172, N,2,2-trimethyl-N-(trans-3-(2-methylpyridin-3-yl)piperidin-4-yl)-3-((3-(trifluoromethyl)pyridin-2-yl)oxy)propanamide]				12.6	2000	39800
CN1CCC(NC(=O)C(C)(C)COc2ccccc2C2CC2)CC1 [Example 70, 3-(2-cyclopropylphenoxy)-2,2-dimethyl-N-(1-methylpiperidin-4-yl)propanamide]	8.4	7.6	5.5			

— US11045457B2, “Piperidinyl-3-(aryloxy)propanamides and propanoates” (priority 2018, dated 2021)
